Measurements: patent publication US8901157B2, “Compositions and methods of use of ritonavir for treating HCV” (AbbVie Inc., priority 2006, dated 2014)
Read-outs that look alike come from different tables or passages of the source. Blank lines part the entries; values can stand above or below the compound they belong to.

What was measured:
in vitro [1] = type: in vitro ADME; details: human, pH 7.4, human liver microsomes, read-out: Percent Inhibition of Metabolism by Ritonavir
Procedure: (§1) Liquid handling was carried out on a Tecan EVO robotic system. Triplicate incubations were carried out at a final test compound concentration of 1 μM with 0.5 mg/ml microsomal protein, and 1 mM NADPH. Pooled human liver microsomes (1 mg/ml protein) and NADPH cofactor (2 mM) were prepared in 50 mM phosphate buffer at pH 7.4. Stock solutions (10 mM) of VX-950 or SCH 503034 were prepared in DMSO and then diluted to 100 μM in 1:1 acetonitrile/water. The solutions of compounds were added into the NADPH cofactor solution containing 0, 0.8 or 8 μM of ritonavir in a 2 ml 96-well plate. The resulting solution was added to the microsomes (1:1) that had been pre-incubated for 10 minutes at 37° C. Samples (0.1 ml) were incubated in 96-well plates at 37° C. for 0, 10, 20 and 30 min in a Tecan 4-slot incubator. At each time point, the robotic arm removed one of the replicate plates and the reactions were stopped by adding 1 volume (100 μl) of acetonitrile with internal standard (0.05 μM buspirone) to each well. All plates were centrifuged at 3500 rpm for 30 min, and the supernatant was transferred to a 96-well injection plate. The plates were stored at 4° C. until analyzed.
(§2) LC-MS/MS analysis: The samples were analyzed in positive mode using the turbospray ion source of PE/Sciex API 4000 Q-Trap mass spectrometer with Shimadzu HPLC system. Samples were injected (5 μL) onto a Lancer C18 column (5 μm, 30×2.1 mm) from Analytical Sales and Services Inc. (Pompton Plains, N.J.) and separation occurred via a gradient: The flow rate was 0.5 mL/min; starting conditions of 7.5% B, 2.5% C, increasing to 30% B and 10% C at 0.4 min. […] Mobile phase A was 95/5 water/methanol (v/v) with 10 mM ammonium acetate and 60 μL/L acetic acid. Mobile phase B was methanol containing 10 mM ammonium acetate and 60 μL/L acetic acid. Mobile phase C was acetonitrile.
Using the above conditions, the presence of ritonavir inhibited the metabolism of VX-950 and SCH 503034 in the following manner:
Metabolism of VX-950 and SCH 503034 in Human Liver Microsomes in the Absence or Presence of Ritonavir

in vitro [2] = type: in vitro ADME; details: rat, pH 7.4, rat liver microsomes, read-out: Percent Inhibition of Metabolism by Ritonavir
Procedure: as §1, §2
Using the procedure of Example 1, but substituting rat liver microsomes for human liver microsomes, the presence of ritonavir inhibited the metabolism of VX-950 and SCH 503034 in the following manner: […]

[3] = Sprague-Dawley, rat, in vivo, 5 mg/kg
in vivo = details: Sprague-Dawley, rat, 5 mg/kg
[4] = Pharmacokinetics of VX-950 in rats, with or without coadministered ritonavir; details: rat; for half-life: Sprague-Dawley, plasma, 5 mg/kg
[5] = Pharmacokinetics of SCH 503034 in rats, with or without coadministered ritonavir; type: in vivo, Sprague-Dawley derived rats; details: rat; for half-life: mean; for Cmax: po, 5 mg/kg; for C8 h: plasma at 8 h
[6] = PO 5 mg/kg, no ritonavir, mean (SEM), n=3
[7] = Sprague-Dawley, plasma, PO 5 mg/kg, no ritonavir, mean (SEM), n=3

Compound: CCC[C@H](NC(=O)[C@@H]1[C@H]2CCC[C@H]2CN1C(=O)[C@@H](NC(=O)[C@@H](NC(=O)c1cnccn1)C1CCCCC1)C(C)(C)C)C(=O)C(=O)NC1CC1 [VX-950, 2-(2-{2-cyclohexyl-2[(pyrazine-2-carbonyl)-amino]-acetylamino}-3,3-dimethyl-butyryl)-octahydro-cyclopenta[c]pyrrole-1-carboxylic acid(1-cyclopropylaminooxalyl-butyl)-amide]
inhibition at 1 μM (in vitro [1]; ritonavir 0 micromolar): 0%
inhibition at 1 μM (in vitro [1]; ritonavir 0.4 micromolar): 72%
inhibition at 1 μM (in vitro [1]; ritonavir 4.0 micromolar): 100%
inhibition at 30 min, 1 μM (in vitro [2]; ritonavir 0 micromolar): 0%
inhibition at 30 min, 1 μM (in vitro [2]; ritonavir 0.4 micromolar): 61%
inhibition at 30 min, 1 μM (in vitro [2]; ritonavir 4.0 micromolar): 100%
Vβ ([3]; iv): 8.1 (2.6) L/kg
F ([3]; po): 34.8 (11.0) %
C8 h ([3]; po, 8 h): 0.018
AUC (in vivo; iv): 3030 ng·h/mL
Vd (in vivo; iv): 2.4 L/kg
clearance (in vivo; iv): 28.3 mL/min/kg
AUC (in vivo; po): 1050 ng·h/mL
Tmax (in vivo; po, Tmax): 1.1 h
half-life ([4]; iv): 2.8 h
half-life ([4]; po): 1.7 h
Cmax [4, 6]: 0.43 (0.15) μg/ml

AUC ([5]; Sprague-Dawley, plasma, IV 5 mg/kg, mean (SEM), n=3): 3120 ng·h/mL
clearance ([5]; Sprague-Dawley, plasma, IV 5 mg/kg, mean (SEM), n=3, read-out: CLp (converted)): 34 mL/min/kg
Vd ([5]; Sprague-Dawley, plasma, IV 5 mg/kg, mean (SEM), n=3, read-out: Vss): 0.53 L/kg
half-life ([5]; Sprague-Dawley, plasma, IV 5 mg/kg, n=3): 0.3 h
AUC [5, 7]: 110 ng·h/mL
AUC(0-t) ([5]; Sprague-Dawley, plasma, PO+ = 5 mg/kg oral SCH 503034 + 5 mg/kg oral ritonavir, mean (SEM), n=3, read-out: AUC (0-8 hr AUC)): 2180 ng·h/mL
half-life ([5]; Sprague-Dawley, plasma, PO+ = 5 mg/kg oral SCH 503034 + 5 mg/kg oral ritonavir, n=3): 2.5 h
Cmax [5, 7]: 70 ng/mL
Cmax ([5]; Sprague-Dawley, plasma, PO+ = 5 mg/kg oral SCH 503034 + 5 mg/kg oral ritonavir, mean (SEM), n=3): 520 ng/mL
plasma levels on coadministering with ritonavir ([5]; 5 mg/kg oral SCH 503034 + 5 mg/kg oral ritonavir vs SCH 503034 alone, FIG. 3): substantially elevated
Vβ ([5]; IV 5 mg/kg, mean (SEM), n=3): 0.92 (0.29) L/kg
F [5, 6]: 3.5 (1.5) %
C8 h ([5]; PO 5 mg/kg, no ritonavir): <0.001
F ([5]; PO+ = 5 mg/kg oral SCH 503034 + 5 mg/kg oral ritonavir, mean (SEM), n=3): 70.1 (7.0) %
C8 h ([5]; PO+ = 5 mg/kg oral SCH 503034 + 5 mg/kg oral ritonavir): 0.076
Compound: CC(C)(C)NC(=O)N[C@H](C(=O)N1C[C@H]2[C@@H]([C@H]1C(=O)NC(CC1CCC1)C(=O)C(N)=O)C2(C)C)C(C)(C)C (some centres unmarked) [SCH 503034, 3-[2-(3-tert-butyl-ureido)-3,3-diemthyl-butyryl]-6,6-dimethyl-3-aza-bicyclo[3.1.0]hexane-2-carboxylic acid (2-carbamoyl-1-cyclobutylmethyl-2-oxo-ethyl)-amide]
